Measured values published in US20260144257A1, “VITAMIN B3 BASED PRESERVATIVE COMPOSITIONS” (SHARON PERSONAL CARE LTD., priority 2022, published 2026).

Tested on: tested bacteria and fungi (E. coli, S. aureus, P. aeruginosa, C. albicans, A. brasiliensis)
Test: Challenge test of preservative efficacy in formulations (ISO 11930)
Type: cell-based
Text: Escherichia coli (ATCC 8739), Staphylococcus aureus (ATCC 6538), P. aeruginosa (ATCC 9027), Candida albicans (ATCC 10231), and Aspergillus brasiliensis (ATCC 16404) were obtained from ATCC and cultured according to the manufacturer's instructions. These microorganisms are routinely used for minimum inhibitory concentration (MIC), checkerboards and challenge tests according to the US and EU recommendations for the efficacy of preservatives in the cosmetic industry. Bacterial strains were maintained in tryptic soy agar (TSA) (Hy-labs, Rehovot, Israel), while yeast and mold strains were maintained in sabouraud dextrose agar (SDA) (Hy-labs, Israel), supplemented with oxytetracycline at a concentration of 1% (Hy-labs, Israel). Preservative efficacy assays (challenge tests) were performed in order to enumerate the number of microorganisms present in a formulation containing the preservative system, while the diluent solution was supplemented with neutralizers containing 4% Tween 20 and 0.5% lecithin (Hy-labs, Israel). Challenge tests of preservative efficacy in formulations were performed according to the ISO 11930 regulations. The total count for any prior contamination was performed for all formulations. Specifically, in order to evaluate the antimicrobial and antifungal activity of the preservative system, samples were inoculated separately with each microorganism at a final concentration of 10^6 cfu/mL for bacteria and 10^5 cfu/mL for yeast and mold. Samples were incubated in the dark at 22° C. for 28 days. […] To enumerate the microorganisms at each time point, serial dilutions were made up to 10-4, and 1 mL were seeded in duplicates onto a petri dish with the appropriate media TSA/SDA (bacteria vs. yeast and mold, respectively), using the pour plate method. Plates were incubated at 32° C. for three days for bacteria while yeast and mold were incubated at 22° C. for five days until the enumeration of viable microorganisms. [table]

## CCCCCCC(O)CO (stereo not drawn) [CG, Caprylyl Glycol]
Sole application (without niacinamide)
  preservative activity: didn't show any markable preservative activity

## NC(=O)c1cccnc1 [niacinamide]
Alone at the above concentrations (about 2.8% niacinamide or about 0.2% cationic surfactant)
  antimicrobial activity of the single agent: only limited antimicrobial activity

## polylysine
Standalone treatment, 0.1%, non-ionic cream
  preservative activity: didn't show any markable preservative activity
